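Tested at 5 concentrations; 48 h exposure; 96-well plates; endpoints linearly interpolated, else capped at highest concentration. TGI denotes the concentration required for complete inhibition of growth.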
What was measured:
Assay in all cases: DTP human tumour cell line panel, 48 h
[1] = system: SNB-75 CNS
[2] = system: SNB-78 CNS
[3] = system: HCT-15 colon
[4] = system: LXFL 529 NSCLC
[5] = system: 786-0 renal
[6] = system: A498 renal
[7] = system: COLO 205 colon
[8] = system: HCC-2998 colon
[9] = system: NCI-H23 lung
[10] = system: OVCAR-3 ovarian
[11] = system: OVCAR-5 ovarian
[12] = system: RXF 393 renal
[13] = system: EKVX NSCLC
[14] = system: ACHN renal
[15] = system: HOP-18 NSCLC
[16] = system: RPMI-8226 leukemia
[17] = system: HL-60(TB) leukemia
[18] = system: K-562 leukemia
[19] = system: UACC-62 melanoma
[20] = system: HOP-92 NSCLC
[21] = system: HT29 colon
[22] = system: SK-OV-3 ovarian
[23] = system: MDA-MB-231 breast
[24] = system: HOP-62 NSCLC
[25] = system: RXF-631 renal
[26] = system: OVCAR-4 ovarian
[27] = system: KM12 colon
[28] = system: KM20L2 colon
[29] = system: NCI-H522 lung
[30] = system: IGROV1 ovarian
[31] = system: SN12C renal
[32] = system: CCRF-CEM leukemia
[33] = system: M14 melanoma
[34] = system: MALME-3M melanoma
[35] = system: MDA-N
[36] = system: NCI-H460 lung
[37] = system: DMS 273 small cell lung
[38] = system: DU-145 prostate
[39] = system: XF 498 CNS
[40] = system: OVCAR-8 ovarian
[41] = system: SF-539 CNS
[42] = system: M19-MEL melanoma
[43] = system: LOX IMVI melanoma
[44] = system: MDA-MB-435
[45] = system: CAKI-1 renal
[46] = system: SR leukemia
[47] = system: SF-268 CNS
[48] = system: SF-295 CNS
[49] = system: SK-MEL-2 melanoma
[50] = system: T-47D breast
[51] = system: SK-MEL-5 melanoma
[52] = system: DMS 114 small cell lung
[53] = system: A549 NSCLC
[54] = system: SW-620 colon
[55] = system: UO-31 renal
[56] = system: MCF7 breast
[57] = system: SK-MEL-28 melanoma
[58] = system: U251 CNS
[59] = system: HCT-116 colon
[60] = system: BT-549 breast
[61] = system: HS 578T breast
[62] = system: SNB-19 CNS
[63] = system: MOLT-4 leukemia
[64] = system: TK-10 renal
[65] = system: DLD-1 colon
[66] = system: UACC-257 melanoma
[67] = system: NCI-H226 lung

C/C(N=NC(=S)N1CCCCCC1)=C1\C=CC=CN1O was tested, and the TGI [1] was 72.7 µM, the TGI [2] was over 100 µM and the TGI [3] was over 100 µM. The TGI [4] was over 100 µM, the TGI [5] was over 49.9 µM and the TGI [6] was 92.1 µM. For the same compound, the TGI [7] was 55.2 µM, the TGI [8] was over 100 µM and the TGI [9] was over 56.2 µM. For the same compound, the TGI [10] was 11.8 µM, the TGI [11] was over 100 µM and the TGI [12] was 79.5 µM. For the same compound, the TGI [13] was over 94.4 µM, the TGI [14] was 67.6 µM and the TGI [15] was over 92.9 µM. The TGI [16] was 11.1 µM, the TGI [17] was 1.74 µM and the TGI [18] was over 51.3 µM. For the same compound, the TGI [19] was 24.6 µM, the TGI [20] was 72.4 µM and the TGI [21] was over 35.6 µM. It also gave a TGI [22] of 98.2 µM, a TGI [23] of over 100 µM and a TGI [24] of over 20.5 µM. The TGI [25] was over 100 µM, the TGI [26] was over 100 µM and the TGI [27] was over 100 µM. It also gave a TGI [28] of over 100 µM, a TGI [29] of 7.1 µM and a TGI [30] of over 53.8 µM. It also gave a TGI [31] of over 100 µM, a TGI [32] of 4.93 µM and a TGI [33] of 38.8 µM. It also gave a TGI [34] of 36.4 µM, a TGI [35] of over 100 µM and a TGI [36] of 31.3 µM. It also gave a TGI [37] of 42.1 µM, a TGI [38] of over 100 µM and a TGI [39] of over 100 µM. It also gave a TGI [40] of over 49.4 µM, a TGI [41] of 48.2 µM and a TGI [42] of 59.3 µM. For the same compound, the TGI [43] was over 56.3 µM, the TGI [44] was over 100 µM and the TGI [45] was over 89.3 µM. The TGI [46] was over 100 µM, the TGI [47] was over 100 µM and the TGI [48] was over 100 µM. The TGI [49] was 18.8 µM, the TGI [50] was 77.7 µM and the TGI [51] was 35.3 µM. The TGI [52] was 3.45 µM, the TGI [53] was over 92.3 µM and the TGI [54] was over 100 µM. For the same compound, the TGI [55] was over 100 µM, the TGI [56] was over 100 µM and the TGI [57] was over 96.3 µM. The TGI [58] was over 100 µM, the TGI [59] was over 100 µM and the TGI [60] was over 100 µM. For the same compound, the TGI [61] was over 100 µM, the TGI [62] was over 100 µM and the TGI [63] was 20.1 µM. It also gave a TGI [64] of over 100 µM, a TGI [65] of over 100 µM and a TGI [66] of 10.9 µM. It also gave a TGI [67] of over 90.3 µM.
